Source: patent US4460781A, “4-(2-Benzoylphenyl-1-pyazole and 4-(2-benzoylphenyl)-1-pyrazoline derivatives” (Hoffmann-La Roche Inc., priority 1983, dated 1984)

Tests used:
male mice = assay: Inclined Screen (paralyzing effects, sliding off the screen); format: in vivo; details: Mus musculus, groups of 6, at least 4 hours, maximum dose of 500 mg/kg, read-out: Inclined Screen (PD50)
Procedure: Groups of 6 male mice are given the test drug (maximum dose of 500 mg/kg) and then are left on the inclined screen at least 4 hours for observation of paralyzing effects severe enough to cause them to slide off the screen. If activity is observed, additional doses are taken until at least two are reached at which some, but not all of the animals slide off the screen. Doses at which mice fall off the screen due to toxicity or excitation are not included in the calculation of PD50.

Cats = assay: Unanesthetized Cat (minimum symptoms, usually ataxia); format: in vivo; details: Felis catus, po, cats treated orally
Procedure: Cats are treated orally and observed for minimum symptoms--usually ataxia. One cat is used at a dose of 50 mg/kg. If activity is present, up to three cats/dose are used. Results are given as minimum effective dose.

Toxicity (LD50) (PO) = details: in vivo
mice = assay: Footshock (blocking of shock-elicited fighting in pairs of mice); format: in vivo; details: Mus musculus, pretreated 1 hour, 3 out of 3 pairs blocked from fighting, maximum of 100 mg/kg, read-out: Footshock (100% blocking dose)
Procedure: A pair of mice is confined under a one liter beaker placed on a grid which presents shock to the feet. At least 5 fighting episodes are elicited in a two-minute period. Pairs of mice are marked and pretreated 1 hour to a second shocking. Logarithmic dose intervals are utilized up to a maximum of 100 mg/kg. At the 100% blocking dose, 3 out of 3 pairs must be blocked from fighting.

With `Cc1[nH]nc2c1-c1ccc([N+](=O)[O-])cc1C(c1ccccc1Cl)=NC2` [6-(2-Chlorophenyl)-3-methyl-8-nitro-2H,4H-pyrazolo[3,4-d][2]benzazepine] the ED50 (male mice) was 400 mg/kg, the minimal effective dose (Cats) was 250 mg/kg and the LD50 (Toxicity (LD50) (PO)) was > 1000 mg/kg.
In the case of `OCCn1cc2c(n1)CN=C(c1ccccc1)c1cc(Cl)ccc1-2` [8-Chloro-2-(2-hydroxyethyl)-6-phenyl-2H,4H-pyrazolo[3,4-d][2]benzazepine], the ED100 (mice) is reported as 100 mg/kg, the ED50 (male mice) is reported as 40 mg/kg and the minimal effective dose (Cats) is reported as 20 mg/kg. The LD50 (Toxicity (LD50) (PO)) was 750 mg/kg.
With `Clc1ccc2c(c1)C(c1ccccc1Cl)=NCc1n[nH]cc1-2` [8-Chloro-6-(2-chlorophenyl)-2H,4H-pyrazolo[3,4-d][2]benzazepine] the ED100 (mice) was 25 mg/kg, the ED50 (male mice) was 143 mg/kg and the minimal effective dose (Cats) was 10 mg/kg. The LD50 (Toxicity (LD50) (PO)) was 800 mg/kg.
In the case of `Fc1ccccc1C1=NCc2n[nH]cc2-c2ccc(Cl)cc21` [8-Chloro-6-(2-fluorophenyl)-2H,4H-pyrazolo[3,4-d][2]benzazepine], the ED100 (mice) is reported as 25 mg/kg, the ED50 (male mice) is reported as 66 mg/kg and the minimal effective dose (Cats) is reported as 2 mg/kg. For the same molecule, the LD50 (Toxicity (LD50) (PO)) was 760 mg/kg.
`CNC(=O)n1cc2c(n1)CN=C(c1ccccc1)c1cc(Cl)ccc1-2` [8-Chloro-N-methyl-6-phenyl-2H,4H-pyrazolo[3,4-d][2]benzazepine-2-carboxamide] gave an ED100 (mice) of 25 mg/kg, an ED50 (male mice) of 400 mg/kg and a minimal effective dose (Cats) of 20 mg/kg.
